Source: the RepoRT retention time repository (doi:10.1007/s00216-021-03828-0)

Experiments:
Settings in all cases: stereoisomer not certain
[1] = RP, Merck Supelco Ascentis Express C18, 100 × 2.1 mm, 2 µm, 40 °C, 0.4 mL/min, estimated dead time 0.55 min; A: water + 0.1% formic acid, pH 3; B: acetonitrile + 0.1% formic acid, pH 3; gradient (min/%B) 0/5 2/5 17/99.9 20/99.9
[2] = RP, Merck Supelco Ascentis Express C18, 100 × 2.1 mm, 2 µm, 39 °C, 0.3 mL/min, estimated dead time 0.73 min; A: water + 0.1% formic acid, pH 3; B: acetonitrile + 0.1% formic acid, pH 3; gradient (min/%B) 0/5 2/5 17/99.9 20/99.9
[3] = RP, Merck Supelco Ascentis Express C18, 100 × 2.1 mm, 2 µm, 40 °C, 0.4 mL/min, estimated dead time 0.55 min; A: water + 0.1% formic acid, pH 3; B: acetonitrile + 0.1% formic acid, pH 3; gradient (min/%B) 0/5 2/5 17/99.9 20/99.9; remark: listed apart in the source
[4] = RP, Merck Supelco Ascentis Express C18, 100 × 2.1 mm, 2 µm, 40 °C, 0.25 mL/min, estimated dead time 0.88 min; A: water + 0.1% formic acid, pH 3; B: acetonitrile + 0.1% formic acid, pH 3; gradient (min/%B) 0/5 2/5 17/99.9 20/99.9
[5] = RP, Merck Supelco Ascentis Express C18, 100 × 2.1 mm, 2 µm, 40 °C, 0.2 mL/min, estimated dead time 1.1 min; A: water + 0.1% formic acid, pH 3; B: acetonitrile + 0.1% formic acid, pH 3; gradient (min/%B) 0/5 2/5 17/99.9 20/99.9
[6] = as above; remark: listed apart in the source
[7] = RP, Merck Supelco Ascentis Express C18, 100 × 2.1 mm, 2 µm, 40 °C, 0.35 mL/min, estimated dead time 0.63 min; A: water + 0.1% formic acid, pH 3; B: acetonitrile + 0.1% formic acid, pH 3; gradient (min/%B) 0/5 2/5 17/99.9 20/99.9

| SMILES | LC retention time [1] [min] | LC retention time [2] [min] | LC retention time [3] [min] | LC retention time [4] [min] | LC retention time [5] [min] | LC retention time [6] [min] | LC retention time [7] [min] |
| --- | --- | --- | --- | --- | --- | --- | --- |
| O=C(O)C(O)Cc1ccc(O)cc1 (stereo not drawn) [HYDROXYPHENYLLACTATE] | 3.96 | 4.5 | 3.93 | 4.9 | 5.42 | 5.43 | 4.18 |
| NC(=O)Cc1c[nH]c2ccccc12 [INDOLE-3-ACETAMIDE] | 4.27 | 4.85 | 4.23 | 5.28 | 5.83 | 5.84 | 4.51 |
| OCCc1c[nH]c2ccccc12 [INDOLE-3-ETHANOL] | 5.61 | 6.22 | 4.78 | 6.66 | 7.25 | 7.27 | 5.95 |
| O=C(O)C(=O)Cc1c[nH]c2ccccc12 [INDOLE-3-PYRUVATE] | 5.52 | 6.08 | 5.58 | 6.47 | 7 | 7.11 | 5.84 |
| O=CCc1c[nH]c2ccccc12 [INDOLEACETALDEHYDE] | 2.15 | 4.07 | 2.17 | 4.45 | 4.97 | 4.21 | 2.45 |
| O=c1[nH]cnc2c1ncn2C1OC(CO)C(O)C1O (stereo not drawn) [INOSINE] | 0.703 | 0.943 | 0.663 | 1.12 | 1.39 | 1.37 | 0.76 |
| CCC(C)C(N)C(=O)O (stereo not drawn) [ISOLEUCINE] | 0.697 | 0.93 | 0.717 | 1.14 | 1.45 | 1.43 | 0.793 |
| O=C(O)c1cc(=O)c2ccccc2[nH]1 [KYNURENATE] | 2.97 | 3.64 | 2.93 | 4 | 4.52 | 4.53 | 3.24 |
| NC(=O)[C@@H](N)Cc1c[nH]c2ccccc12 [L-TRYPTOPHANAMIDE] | 1.56 | 2.02 | 1.53 | 2.41 | 3.02 | 2.97 | 1.78 |
| CCCCCCCCCCCC(=O)O [LAURATE] | 12.6 | 13.3 | 12.5 | 13.9 | 14.7 | 14.7 | 12.9 |
| CCCCCCCCCCCC(=O)OC(CC(=O)[O-])C[N+](C)(C)C (stereo not drawn) [LAUROYLCARNITINE] | 9.29 | 9.71 | 9.25 | 10.2 | 10.8 | 10.7 | 9.5 |
| CC(C)CC(N)C(=O)O (stereo not drawn) [LEUCINE] | 0.743 | 0.98 | 0.727 | 1.22 | 1.56 | 1.55 | 0.873 |
| NC(Cc1cc(I)c(Oc2ccc(O)c(I)c2)c(I)c1)C(=O)O (stereo not drawn) [LIOTHYRONINE] | 7.03 | 7.45 | 7 | 7.75 | 8.19 | 8.2 | 7.2 |
| CC(CCC(=O)O)C1CCC2C3CCC4CC(O)CCC4(C)C3CCC12C (stereo not drawn) [LITHOCHOLATE] | 12.4 | 13.1 | 12.4 | 13.7 | 14.4 | 14.4 | 12.7 |
